Like-named read-outs stand apart in the source and are kept apart here.
Key:
Test in all cases: KiNativ assay
Type in all cases: binding
AurB = AurB (Homo sapiens (Human), UniProt Q96GD4); conditions: H929 live cell
Method: (§1) Biochemical IC50s of the compounds of the present disclosure against various kinases were measured in a KiNativ assay. Compounds were screened in duplicate at 10 μM in H929 live cell. IC50 was measured via Mass spectroscopy (MS).

CaMK2d = CaMK2d (Homo sapiens (Human), UniProt Q13557); conditions: H929 live cell
Method: as §1

CaMK2g = CaMK2g (Homo sapiens (Human), UniProt Q13555); conditions: H929 live cell
Method: as §1

CaMKK2 = CaMKK2 (Homo sapiens (Human), UniProt Q96RR4); conditions: H929 live cell
Method: as §1

Erk2 = Erk2 (Homo sapiens (Human), UniProt P28482); conditions: H929 live cell
Method: as §1

FER = FER (Homo sapiens (Human), UniProt P16591); conditions: H929 live cell
Method: as §1

GCN2 domain2 = GCN2 domain2 (Homo sapiens (Human), UniProt Q9P2K8); conditions: H929 live cell
Chain of GCN2 domain2 (Q9P2K8 whole entry, the tested form may be a part): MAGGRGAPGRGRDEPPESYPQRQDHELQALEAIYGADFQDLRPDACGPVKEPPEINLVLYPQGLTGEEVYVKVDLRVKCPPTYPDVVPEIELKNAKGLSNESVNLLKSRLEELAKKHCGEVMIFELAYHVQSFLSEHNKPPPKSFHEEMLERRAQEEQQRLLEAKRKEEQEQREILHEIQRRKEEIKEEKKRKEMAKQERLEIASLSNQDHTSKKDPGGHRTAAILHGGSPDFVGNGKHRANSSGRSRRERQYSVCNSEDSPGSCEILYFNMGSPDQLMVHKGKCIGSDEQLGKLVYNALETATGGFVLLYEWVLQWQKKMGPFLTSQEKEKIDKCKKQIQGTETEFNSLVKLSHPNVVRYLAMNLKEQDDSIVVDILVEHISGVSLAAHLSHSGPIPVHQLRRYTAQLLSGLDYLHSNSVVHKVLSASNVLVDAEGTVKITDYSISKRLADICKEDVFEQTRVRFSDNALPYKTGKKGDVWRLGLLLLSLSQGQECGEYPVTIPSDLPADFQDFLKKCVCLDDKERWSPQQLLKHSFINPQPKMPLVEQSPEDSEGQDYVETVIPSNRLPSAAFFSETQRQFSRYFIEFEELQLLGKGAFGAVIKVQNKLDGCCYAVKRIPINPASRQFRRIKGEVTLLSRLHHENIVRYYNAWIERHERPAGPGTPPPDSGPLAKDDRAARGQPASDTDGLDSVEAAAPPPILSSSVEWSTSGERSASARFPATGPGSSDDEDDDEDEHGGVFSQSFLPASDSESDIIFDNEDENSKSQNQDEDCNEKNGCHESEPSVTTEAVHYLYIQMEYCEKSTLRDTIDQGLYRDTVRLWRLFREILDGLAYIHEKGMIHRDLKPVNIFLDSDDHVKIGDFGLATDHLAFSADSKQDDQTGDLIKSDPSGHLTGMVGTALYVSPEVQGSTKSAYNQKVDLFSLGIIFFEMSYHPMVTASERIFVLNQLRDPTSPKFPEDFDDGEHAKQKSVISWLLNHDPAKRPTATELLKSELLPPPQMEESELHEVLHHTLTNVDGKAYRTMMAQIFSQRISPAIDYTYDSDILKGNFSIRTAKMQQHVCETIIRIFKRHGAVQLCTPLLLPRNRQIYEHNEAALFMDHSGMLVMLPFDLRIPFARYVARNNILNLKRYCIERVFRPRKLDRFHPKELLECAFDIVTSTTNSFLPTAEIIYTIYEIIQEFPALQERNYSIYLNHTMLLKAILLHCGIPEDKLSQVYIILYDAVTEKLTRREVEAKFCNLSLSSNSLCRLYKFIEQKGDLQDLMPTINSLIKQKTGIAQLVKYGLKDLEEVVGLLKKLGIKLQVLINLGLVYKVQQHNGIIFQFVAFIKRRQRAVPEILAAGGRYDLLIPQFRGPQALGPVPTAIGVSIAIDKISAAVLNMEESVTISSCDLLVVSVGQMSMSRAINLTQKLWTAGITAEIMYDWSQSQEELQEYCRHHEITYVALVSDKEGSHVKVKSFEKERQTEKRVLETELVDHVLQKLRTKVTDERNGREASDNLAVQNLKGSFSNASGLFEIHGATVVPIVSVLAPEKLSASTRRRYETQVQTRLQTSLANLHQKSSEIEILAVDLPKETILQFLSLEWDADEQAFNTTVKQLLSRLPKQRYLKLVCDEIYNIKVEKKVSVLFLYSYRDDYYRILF
Method: as §1

GSK3A = GSK3A (Homo sapiens (Human), UniProt P49840); conditions: H929 live cell
Method: as §1

GSK3B = GSK3B (Homo sapiens (Human), UniProt P49841); conditions: H929 live cell
Method: as §1

IKKb = IKKb (Homo sapiens (Human), UniProt O14920); conditions: H929 live cell
Method: as §1

ILK = ILK (Homo sapiens (Human), UniProt Q13418); conditions: H929 live cell
Method: as §1

IRE1 = IRE1 (Homo sapiens (Human), UniProt O75460); conditions: H929 live cell
Method: as §1

JNK1, JNK2, JNK3 = conditions: H929 live cell
Method: as §1

LATS1 = LATS1 (Homo sapiens (Human), UniProt O95835); conditions: H929 live cell
Method: as §1

LKB1 = LKB1 (Homo sapiens (Human), UniProt Q15831); conditions: H929 live cell
Method: as §1

LYN = LYN (Homo sapiens (Human), UniProt P07948); conditions: H929 live cell
Method: as §1

MAP2K1, MAP2K2 = conditions: 10 μM, H929 live cell; range class
Method: as §1

MAP3K2 = MAP3K2 (Homo sapiens (Human), UniProt Q9Y2U5); conditions: H929 live cell
Chain of MAP3K2 (Q9Y2U5 whole entry): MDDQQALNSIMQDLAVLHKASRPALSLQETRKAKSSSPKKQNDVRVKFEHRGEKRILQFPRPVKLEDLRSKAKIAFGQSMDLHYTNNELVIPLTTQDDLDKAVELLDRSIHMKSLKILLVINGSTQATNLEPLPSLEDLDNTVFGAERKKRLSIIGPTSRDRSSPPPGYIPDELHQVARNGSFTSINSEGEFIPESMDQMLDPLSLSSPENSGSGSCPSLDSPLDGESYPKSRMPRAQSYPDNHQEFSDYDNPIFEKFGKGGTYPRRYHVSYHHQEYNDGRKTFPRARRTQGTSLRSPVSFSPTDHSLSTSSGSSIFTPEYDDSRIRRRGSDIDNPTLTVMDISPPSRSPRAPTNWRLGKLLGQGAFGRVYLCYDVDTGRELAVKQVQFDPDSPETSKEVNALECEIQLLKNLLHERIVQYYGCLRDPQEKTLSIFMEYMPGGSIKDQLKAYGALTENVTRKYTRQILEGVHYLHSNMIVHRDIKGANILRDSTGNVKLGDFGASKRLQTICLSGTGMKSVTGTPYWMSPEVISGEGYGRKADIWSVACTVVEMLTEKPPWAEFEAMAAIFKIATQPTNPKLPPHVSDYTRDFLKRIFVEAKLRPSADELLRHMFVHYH
Method: as §1

MAP3K2, MAP3K3 = conditions: H929 live cell
Method: as §1

MLKL = MLKL (Homo sapiens (Human), UniProt Q8NB16); conditions: H929 live cell
Chain of MLKL (Q8NB16 whole entry): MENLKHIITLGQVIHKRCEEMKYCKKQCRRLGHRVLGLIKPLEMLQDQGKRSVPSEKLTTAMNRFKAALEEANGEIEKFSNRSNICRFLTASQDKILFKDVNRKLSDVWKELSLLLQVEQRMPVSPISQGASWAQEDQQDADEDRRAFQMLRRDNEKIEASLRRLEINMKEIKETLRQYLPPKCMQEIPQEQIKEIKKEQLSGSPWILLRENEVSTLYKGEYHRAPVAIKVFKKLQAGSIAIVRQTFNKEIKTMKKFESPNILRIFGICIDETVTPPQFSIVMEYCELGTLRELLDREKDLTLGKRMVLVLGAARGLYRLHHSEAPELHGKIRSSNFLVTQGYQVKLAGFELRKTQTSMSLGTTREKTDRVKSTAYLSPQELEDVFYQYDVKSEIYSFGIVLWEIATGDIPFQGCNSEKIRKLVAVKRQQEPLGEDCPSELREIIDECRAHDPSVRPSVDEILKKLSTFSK
Method: as §1

NEK6, NEK7 = conditions: H929 live cell
Method: as §1

NEK8 = NEK8 (Homo sapiens (Human), UniProt Q86SG6); conditions: H929 live cell
Chain of NEK8 (Q86SG6 whole entry): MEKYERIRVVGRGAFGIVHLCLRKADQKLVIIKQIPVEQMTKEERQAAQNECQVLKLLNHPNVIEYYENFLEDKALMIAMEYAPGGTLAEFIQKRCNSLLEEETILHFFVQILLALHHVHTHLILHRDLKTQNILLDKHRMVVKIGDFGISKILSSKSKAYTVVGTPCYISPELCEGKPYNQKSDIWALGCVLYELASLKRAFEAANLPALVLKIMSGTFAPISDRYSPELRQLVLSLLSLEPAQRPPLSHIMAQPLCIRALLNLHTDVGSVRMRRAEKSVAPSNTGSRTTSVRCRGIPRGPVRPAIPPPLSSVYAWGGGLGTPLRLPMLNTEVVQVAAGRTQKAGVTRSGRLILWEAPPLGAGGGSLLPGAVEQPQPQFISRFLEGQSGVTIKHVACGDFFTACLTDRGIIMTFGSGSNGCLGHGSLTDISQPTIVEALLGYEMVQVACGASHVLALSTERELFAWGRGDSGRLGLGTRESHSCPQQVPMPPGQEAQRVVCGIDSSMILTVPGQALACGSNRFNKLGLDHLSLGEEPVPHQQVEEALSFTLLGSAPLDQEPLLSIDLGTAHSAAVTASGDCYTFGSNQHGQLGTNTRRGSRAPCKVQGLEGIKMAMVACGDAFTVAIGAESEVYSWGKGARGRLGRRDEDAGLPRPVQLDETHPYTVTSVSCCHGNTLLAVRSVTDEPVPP
Method: as §1

NuaK2 = NuaK2 (Homo sapiens (Human), UniProt Q9H093); conditions: H929 live cell
Method: as §1

PEK = PEK (Homo sapiens (Human), UniProt Q9NZJ5); conditions: H929 live cell
Chain of PEK (Q9NZJ5 30-1116): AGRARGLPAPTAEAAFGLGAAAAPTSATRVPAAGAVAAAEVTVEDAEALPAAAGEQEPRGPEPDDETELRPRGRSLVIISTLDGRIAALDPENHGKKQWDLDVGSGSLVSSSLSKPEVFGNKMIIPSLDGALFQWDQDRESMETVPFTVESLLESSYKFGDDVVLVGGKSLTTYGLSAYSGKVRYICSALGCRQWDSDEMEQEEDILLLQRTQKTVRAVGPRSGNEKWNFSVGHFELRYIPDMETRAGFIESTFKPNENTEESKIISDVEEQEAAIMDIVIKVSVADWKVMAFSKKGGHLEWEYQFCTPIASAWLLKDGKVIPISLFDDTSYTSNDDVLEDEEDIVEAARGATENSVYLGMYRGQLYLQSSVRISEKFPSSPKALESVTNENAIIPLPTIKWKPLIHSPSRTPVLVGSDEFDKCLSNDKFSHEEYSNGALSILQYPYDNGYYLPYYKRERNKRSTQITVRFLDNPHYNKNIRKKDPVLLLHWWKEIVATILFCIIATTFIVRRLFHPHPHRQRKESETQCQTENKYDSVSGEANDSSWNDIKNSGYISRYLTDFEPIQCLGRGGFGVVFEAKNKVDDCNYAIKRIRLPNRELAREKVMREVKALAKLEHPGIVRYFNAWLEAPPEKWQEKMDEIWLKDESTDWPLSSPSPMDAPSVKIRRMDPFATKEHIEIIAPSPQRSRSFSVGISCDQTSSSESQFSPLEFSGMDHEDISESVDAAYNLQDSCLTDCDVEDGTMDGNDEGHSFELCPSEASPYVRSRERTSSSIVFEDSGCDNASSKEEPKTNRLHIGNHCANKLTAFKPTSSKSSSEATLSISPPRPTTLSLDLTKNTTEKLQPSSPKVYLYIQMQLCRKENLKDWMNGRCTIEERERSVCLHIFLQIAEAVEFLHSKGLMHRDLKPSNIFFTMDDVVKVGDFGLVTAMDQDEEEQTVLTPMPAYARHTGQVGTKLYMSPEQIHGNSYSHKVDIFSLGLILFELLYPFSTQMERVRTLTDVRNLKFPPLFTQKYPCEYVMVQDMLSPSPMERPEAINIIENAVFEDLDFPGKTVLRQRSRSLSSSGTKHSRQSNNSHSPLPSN
Method: as §1

PIP4K2A = PIP4K2A (Homo sapiens (Human), UniProt P48426); conditions: H929 live cell
Method: as §1

PKCz = PKCz (Homo sapiens (Human), UniProt Q05513); conditions: H929 live cell
Method: as §1

PKD3 = PKD3 (Homo sapiens (Human), UniProt O94806); conditions: H929 live cell
Method: as §1

PRPK = PRPK (Homo sapiens (Human), UniProt Q96S44); conditions: H929 live cell
Method: as §1

RSK1 domain1 = RSK1 domain1 (Homo sapiens (Human), UniProt Q15418); conditions: H929 live cell
Method: as §1

SNRK = SNRK (Homo sapiens (Human), UniProt Q9NRH2); conditions: H929 live cell
Method: as §1

STLK5 = STLK5 (Homo sapiens (Human), UniProt Q7RTN6); conditions: H929 live cell
Method: as §1

TAO1, TAO3 = conditions: H929 live cell
Method: as §1

ZAK = ZAK (Homo sapiens (Human), UniProt Q9NYL2); conditions: H929 live cell
Method: as §1

[1] = test system: ZC1/HGK, ZC2/TNIK, ZC3/MINK; conditions: H929 live cell
Method: as §1

[2] = range class, read-out: % inhibition

Chain of AurB (Q96GD4 whole entry): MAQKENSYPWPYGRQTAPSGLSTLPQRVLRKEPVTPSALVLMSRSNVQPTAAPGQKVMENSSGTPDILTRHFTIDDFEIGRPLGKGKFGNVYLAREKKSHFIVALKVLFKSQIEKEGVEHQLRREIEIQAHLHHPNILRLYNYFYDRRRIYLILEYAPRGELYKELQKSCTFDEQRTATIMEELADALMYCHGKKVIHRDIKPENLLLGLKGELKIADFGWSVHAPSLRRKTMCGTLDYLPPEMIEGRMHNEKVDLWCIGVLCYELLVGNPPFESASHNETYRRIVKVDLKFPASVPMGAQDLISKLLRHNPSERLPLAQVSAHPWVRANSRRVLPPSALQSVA

COc1cc(NS(=O)(=O)C2CC2)ccc1-c1cnc(N)c(-c2ccc3c(c2)CCNC3=O)c1 [Compound I-50, N-(4-(6-amino-5-(1-oxo-1,2,3,4-tetrahydroisoquinolin-6-yl)pyridin-3-yl)-3-methoxyphenyl) cyclopropanesulfonamide]
inhibition at 10 µM (AurB; [2]): 0%
inhibition at 10 µM (AurB; read-out: inhibition (10 μM)): 7.7%
inhibition at 10 µM (CaMK2d; [2]): 0%
inhibition at 10 µM (CaMK2d; read-out: inhibition (10 μM)): 15.9%
inhibition at 10 µM (CaMK2g; [2]): 0%
inhibition at 10 µM (CaMK2g; read-out: inhibition (10 μM)): 15.6%
inhibition at 10 µM (CaMKK2; [2]): 75 to 90%
inhibition at 10 µM (CaMKK2; read-out: inhibition (10 μM)): 88.3%
inhibition at 10 µM (Erk2; [2]): 0%
inhibition at 10 µM (Erk2; read-out: inhibition (10 μM)): 34.5%
inhibition at 10 µM (FER; [2]): 0%
inhibition at 10 µM (FER; read-out: inhibition (10 μM)): 16.3%
inhibition at 10 µM (GCN2 domain2; [2]): 0%
inhibition at 10 µM (GCN2 domain2; read-out: inhibition (10 μM)): -12.3%
inhibition at 10 µM (GSK3A; [2]): 75 to 90%
inhibition at 10 µM (GSK3A; read-out: inhibition (10 μM)): 77.4%
inhibition at 10 µM (GSK3B; [2]): 75 to 90%
inhibition at 10 µM (GSK3B; read-out: inhibition (10 μM)): 81.1%
inhibition at 10 µM (IKKb; [2]): 0%
inhibition at 10 µM (IKKb; read-out: inhibition (10 μM)): -26.2%
inhibition at 10 µM (ILK; [2]): 0%
inhibition at 10 µM (ILK; read-out: inhibition (10 μM)): -18.8%
inhibition at 10 µM (IRE1; [2]): 0%
inhibition at 10 µM (IRE1; read-out: inhibition (10 μM)): -8.7%
% inhibition (JNK1, JNK2, JNK3; 10 μM, range class): 0.0%
inhibition (10 μM) (JNK1, JNK2, JNK3): 26.8%
inhibition at 10 µM (LATS1; [2]): 0%
inhibition at 10 µM (LATS1; read-out: inhibition (10 μM)): 2.9%
inhibition at 10 µM (LKB1; [2]): 0%
inhibition at 10 µM (LKB1; read-out: inhibition (10 μM)): -1.1%
inhibition at 10 µM (LYN; [2]): 0%
inhibition at 10 µM (LYN; read-out: inhibition (10 μM)): 9.7%
% inhibition (MAP2K1, MAP2K2): 0.0%
inhibition at 10 µM (MAP3K2; [2]): 0%
inhibition at 10 µM (MAP3K2; read-out: inhibition (10 μM)): -39.1%
% inhibition (MAP3K2, MAP3K3; 10 μM, range class): 0.0%
inhibition (10 μM) (MAP3K2, MAP3K3): 12.0%
inhibition at 10 µM (MLKL; [2]): 0%
inhibition at 10 µM (MLKL; read-out: inhibition (10 μM)): 8.2%
% inhibition (NEK6, NEK7; 10 μM, range class): 0.0%
inhibition (10 μM) (NEK6, NEK7): −54.5%
inhibition at 10 µM (NEK8; [2]): 0%
inhibition at 10 µM (NEK8; read-out: inhibition (10 μM)): -8.1%
inhibition at 10 µM (NuaK2; [2]): 35 to 40%
inhibition at 10 µM (NuaK2; read-out: inhibition (10 μM)): 40.8%
inhibition at 10 µM (PEK; [2]): 0%
inhibition at 10 µM (PEK; read-out: inhibition (10 μM)): 7.9%
inhibition at 10 µM (PIP4K2A; [2]): 0%
inhibition at 10 µM (PIP4K2A; read-out: inhibition (10 μM)): -5.5%
inhibition at 10 µM (PKCz; [2]): 0%
inhibition at 10 µM (PKCz; read-out: inhibition (10 μM)): -1.7%
inhibition at 10 µM (PKD3; [2]): 50 to 75%
inhibition at 10 µM (PKD3; read-out: inhibition (10 μM)): 69.7%
inhibition at 10 µM (PRPK; [2]): 0%
inhibition at 10 µM (PRPK; read-out: inhibition (10 μM)): -23.6%
inhibition at 10 µM (RSK1 domain1; [2]): 0%
inhibition at 10 µM (RSK1 domain1; read-out: inhibition (10 μM)): -4.6%
inhibition at 10 µM (SNRK; [2]): 0%
inhibition at 10 µM (SNRK; read-out: inhibition (10 μM)): 33.2%
inhibition at 10 µM (STLK5; [2]): 0%
inhibition at 10 µM (STLK5; read-out: inhibition (10 μM)): -22.3%
% inhibition (TAO1, TAO3; 10 μM, range class): 0.0%
inhibition (10 μM) (TAO1, TAO3): 17.8%
inhibition at 10 µM (ZAK; [2]): 0%
inhibition at 10 µM (ZAK; read-out: inhibition (10 μM)): 6.6%
% inhibition ([1]; 10 μM, range class): >90%
inhibition (10 μM) [1]: 96.3%

— patent US10710978B2, “STK4 inhibitors for treatment of hematologic malignancies” (Dana-Farber Cancer Institute, Inc., priority 2015, dated 2020)
